Residues, ends and D or L forms follow the SMILES beside them.
Legend:
S. aureus USA300 [1] = test: FITC entry into live bacteria, confocal microscopy; type: cell-based, Staphylococcus aureus; settings: peptide and FITC 9 μM
Description: The entrance of a fluorescent dye into live bacterial cells was also followed by confocal microscopy (Mishra et al. (2015) RSC Advances 5:59758-59769). In brief, S. aureus USA300 was grown to the exponential phase from the overnight culture. The cells were then washed twice with fresh 1×PBS (pH 7.2) and the final cell density was adjusted to 1×10^8 CFU/mL. 1500 μL of the culture was added to the chambers of cuvettes (borosilicate cover glass systems; Nunc Cat. No. 155380) with equimolar concentrations of TetraF2W-RK and fluorescein isothiocyanate FITC (9 μM). The samples were examined with a confocal laser scanning microscope (Zeiss 710) with live time series of picture taken every 5 seconds for 5 minutes and the data were processed using Zen 2010 software.

proteinase K = target: T1, proteinase K (Parengyodontium album, UniProt P06873); test: Peptide stability to proteases (SDS-PAGE); type: in vitro ADME, fungal; settings: peptide:protease 40:1, 24 hours, 37° C.
T1 construct: purchased Sigma or Fisher
T1 sequence (P06873 106-384): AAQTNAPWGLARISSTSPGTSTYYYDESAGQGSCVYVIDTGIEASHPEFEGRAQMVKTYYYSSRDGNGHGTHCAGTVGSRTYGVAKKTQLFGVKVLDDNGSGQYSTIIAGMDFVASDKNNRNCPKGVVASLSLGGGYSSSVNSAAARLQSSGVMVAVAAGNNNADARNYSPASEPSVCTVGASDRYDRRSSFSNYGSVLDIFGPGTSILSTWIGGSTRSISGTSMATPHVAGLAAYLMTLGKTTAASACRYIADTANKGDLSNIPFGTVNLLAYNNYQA
Description: When degraded, no peptide band could be detected on a 5% stacking/18% resolving tricine gel after 2-4 hours incubation at 37° C. Briefly, a solution (100 μL) containing 250 μM peptide and 6.25 μM protease (Sigma or Fisher) in 10 mM PBS buffer (pH 8) was incubated at 37° C. (peptide/protease molar ratio, 40:1). Aliquots (10 μL) of the reaction solutions were taken at 0, 6, and 24 hours and immediately mixed with 10 μL of 2× SDS loading buffer followed by boiling for 5 minutes to stop the reaction. […] After electrophoresis, the gel was stained by Brilliant Blue R-250 (Fisher) and destained to view the peptide bands.

S. aureus USA300 [2] = test: Live cell penetration experiment (FITC, confocal); type: cell-based, Staphylococcus aureus; settings: peptide and FITC 12.5 μM
Description: The entrance of a fluorescent dye into live bacterial cells was followed by confocal microscopy (Mishra et al. (2015) RSC Advances 5:59758-59769). In short, S. aureus USA300 was grown to the exponential phase from the overnight culture. The cells were then washed twice with fresh 1×PBS (pH 7.2) and the final cell density was adjusted to 1×10^8 CFU/mL. 1500 μL of the culture was added to the chambers of cuvettes (borosilicate cover glass systems) with equimolar concentrations of TetraF2W-RK and fluorescein isothiocyanate FITC (12.5 μM). The samples were examined with a confocal laser scanning microscope (Zeiss 710) with a series of live time pictures taken at every 5 seconds for 5 minutes and the data were processed using Zen 2010 software.

S. aureus USA300 [3] = test: Propidium iodide membrane permeation; type: cell-based, Staphylococcus aureus
Description: Fluorescence spectroscopy was also used to follow bacterial killing. In brief, a serially diluted 10× peptide (10 μL) was made in 96-well coming COSTAR microtiter plates. Propidium iodide (2 μL) was added at 50 μM to each well which was finally incubated with S. aureus USA300 bacteria (88 μL at a final OD600 ˜0.1) with continuous shaking at 100 rpm, 37° C. in a FLUOstar® Omega (BMG LABTECH Inc, NC) microplate reader. The plates were read every 5 minutes for a total duration of 2 hours with excitation and emission wavelengths at 584 nm and 620 nm respectively. Plots were made using averaged readings from duplicated experiments after subtraction of the media control.

S. aureus USA300 [4] = test: Propidium iodide membrane permeation (Example 3); type: cell-based, Staphylococcus aureus; settings: 3.1 μM
Description: FIGS. 15A and 15B show the growth inhibition (FIG. 15A) and propidium iodide-based membrane permeation (FIG. 15B) of S. aureus USA300 in TSB media by 3.1 μM of TetraF2W-RR and its single arginine variants (Table 8) at 37° C. with shaking at 100 rpm.
Fluorescence spectroscopy was also used to follow bacterial killing. In brief, μL of serially diluted 10× peptide concentrations were done in 96-well coming COSTAR microtiter plates. Propidium iodide at a fixed concentration of 20 μM per well was added to each well which was finally incubated with 88 μL of S. aureus USA300 (with a final OD600 0.1) with continuous shaking at 100 rpm with meander corner well shaking, 37° C. in a FLUOstar® Omega (BMG LABTECH Inc., NC) microplate reader. The plates were read every 5 minutes for a total duration of 2 hours with excitation and emission wavelengths at 584 nm and 620 nm, respectively.

human red blood cells = test: Hemolytic ability (Example 3); type: cell-based; settings: concentration that causes 50% hemolysis
In short: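 Human red blood cells were washed three times in PBS, diluted to 2%, exposed to peptide for one hour at 37 °C and centrifuged. Hemoglobin in the supernatant was read at 545 nm. Percent lysis is relative to 1% Triton X-100 (100%) and PBS (0%).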

S. aureus USA300 [5] = test: Inhibition of biofilm growth (XTT); type: cell-based, Staphylococcus aureus; set-up: unit of the concentration uncertain
Description: Three types of experiments were conducted to evaluate the anti-biofilm activity of these peptides against S. aureus USA300, which was grown in tryptic soy broth (TSB) media in flat bottom, 96-well, polystyrene microtiter plates (Mishra et al. (2015) RSC Advances 5:59758-59769; Dean et al. (2011) BMC Microbiol., 11:114).
The second experiment evaluates the ability of the peptide to inhibit biofilm formation of S. aureus USA300 in 24 hours. In brief, S. aureus USA300 (10^5 CFU/mL) was made in fresh TSB media from exponentially growing bacteria. 180 μL of this bacterial culture was added to each well of the microtiter plates containing 20 μL of 10× peptide solution.

E. coli ATCC 25922 = type: cell-based, Escherichia coli; settings: ATCC 25922, 20 h
Description: (§1) The antimicrobial activity of peptides was evaluated using a standard broth microdilution protocol. In brief, exponential phase bacteria at 10^6 CFU were incubated with serially diluted peptides overnight for ˜20 hours at 37° C. The plates were read on a ChroMate® 4300 Microplate Reader at 630 nm (GMI, Ramsey, Minn.).

S. aureus USA300 [6] = type: cell-based, Staphylococcus aureus; settings: USA300, 20 h
Description: as §1

CC[C@H](C)[C@H](NC(=O)[C@H](CCCCN)NC(=O)[C@H](CCCNC(=N)N)NC(=O)[C@H](CC(C)C)NC(=O)[C@H](Cc1c[nH]c2ccccc12)NC(=O)[C@H](Cc1c[nH]c2ccccc12)NC(=O)[C@@H](N)Cc1c[nH]c2ccccc12)C(=O)N[C@@H](Cc1c[nH]c2ccccc12)C(N)=O [TetraF2W-RK, WWWLRKIW] (H-WWWLRKIW-NH2; N-terminus assumed)
time for FITC to enter the majority of cells (S. aureus USA300 [1]): 30 s
stability to fungal proteinase K (proteinase K): completely degraded
time to entry of FITC into bacteria after peptide treatment (S. aureus USA300 [2]): 30 s

CC[C@H](C)[C@H](NC(=O)[C@H](CCCNC(=N)N)NC(=O)[C@H](CCCNC(=N)N)NC(=O)[C@H](CC(C)C)NC(=O)[C@H](Cc1c[nH]c2ccccc12)NC(=O)[C@H](Cc1c[nH]c2ccccc12)NC(=O)[C@@H](N)Cc1c[nH]c2ccccc12)C(=O)N[C@@H](Cc1c[nH]c2ccccc12)C(N)=O [TetraF2W-RR, WWWLRRIW] (H-WWWLRRIW-NH2; N-terminus assumed)
propidium iodide fluorescence change after treatment (S. aureus USA300 [3]): most effective in damaging the membranes
membrane permeation by propidium iodide (S. aureus USA300 [4]): most potent
HL50 (human red blood cells): 35 µM
inhibition of biofilm growth (S. aureus USA300 [5]; 6.25 (unit uncertain) as printed): actively inhibited biofilm growth
inhibition of biofilm formation (S. aureus USA300 [5]; 25 (unit uncertain) as printed): completely inhibited
E. coli (MIC) (E. coli ATCC 25922): 6.2 µM
S. aureus (MIC) (S. aureus USA300 [6]): 3.1 µM

From patent US20190048052A1, “ANTI-MICROBIAL PEPTIDES AND COATINGS” (Board of Regents of the University of Nebraska, priority 2016, published 2019)
